Measured values reported in PMC10610134, “Verubulin (Azixa) Analogues with Increased Saturation: Synthesis, SAR and Encapsulation in Biocompatible Nanocontainers Based on Ca^2+ or Mg^2+ Cross-Linked Alginate” (Pharmaceuticals, 2023).

Key:
Type in all cases: cell-based
A549 cell line = assay: MTT assay of nanocontainer formulations, A549; details: Homo sapiens, 48 h treatment, 2c concentration in formulations = 0.1 × COO− concentration
Description: The MTT assay was carried out on the A549 cell line and non-tumor hTERT-immortalized human fibroblasts for 48 h (Table 2; for cell survival curves, see Supplementary Materials).
Lung adenocarcinoma A549, breast adenocarcinoma MDA-MB-231 and non-tumor fibroblasts immortalized with h-TERT cell lines were obtained from the American Type Culture Collection (Manassas, VA, USA). Cells were routinely propagated in Dulbecco’s modified Eagle’s medium (DMEM) supplemented with 10% fetal bovine serum (HyClone, Logan, UT, USA), 2 mM L-glutamine, 100 U/mL penicillin and 100 μg/mL streptomycin (PanEco, Moscow, Russia) at 37 °C, 5% CO2 in a humidified atmosphere. Cells in the logarithmic phase of growth were used in the experiments.
The cytotoxicity of compounds for human cell lines (A549, MDA-MB-231, non-tumor fibroblasts) was assessed in MTT assays. […]
Cytotoxicity was assessed in a formazan conversion assay (MTT test) after a 48 h exposure. After the completion of drug exposure, 0.5 mg/mL 3-(4,5-dimethylthiazol-2-yl)-2,5-diphenyltetrazolium bromide (MTT reagent) was added to cells for 2 h, the culture medium was removed, cells were resuspended in 100 μL DMSO and the optical densities were measured on a Multiscan FC plate spectrophotometer (Thermo Fisher Scientific, Waltham, MA, USA) at a wavelength of 571 nm. […]

[1] = system: immortalized human embryonic kidney cell line HEK293T; assay: MTT cytotoxicity assay, HEK293T; details: HEK-293T, 64 h treatment, MTT, read-out: IC50, nM HEK293T
Excerpt: (§1) The obtained series of verubulin analogues 2a–r (which also included three by-products isolated in the reactions according to Scheme 2) were initially evaluated for cytotoxicity against commonly used human breast cancer cell line MCF7′ (fast-growth subclone), human lung epithelial carcinoma cell line A549 and etiologically non-cancer immortalized lung fibroblast cell line VA13 (WI38 subline 2RA). Cytotoxicity against immortalized human embryonic kidney cell line HEK293T, characterized by a high growth rate, was also studied regarding cytotoxicity against non-cancerous fast-growth cells. A standard MTT assay was performed; verubulin (1) served as a positive reference. The data obtained are presented in Table 1 (for dose–response curves, see Supplementary Materials).
(§2) Human breast cancer cell line MCF7′ and human lung adenocarcinoma cell line A549 were kindly provided by Dr. S. Dmitriev (Lomonosov Moscow State University), immortalized human fibroblast cell line VA13 (WI38 subline 2RA) was kindly provided by Dr. M. Rubtsova (Lomonosov Moscow State University), human embryonic kidney HEK293T cell line was kindly provided by Dr. E. Knyazhanskaya (Lomonosov Moscow State University). MCF7′, VA13, A549 and HEK293T cell lines were maintained in DMEM/F-12 (Thermo Fisher Scientific, Waltham, MA, USA) culture medium containing 10% fetal bovine serum (Thermo Fisher Scientific, Waltham, MA, USA) and 50 μg/mL penicillin and 0.05 mg/mL streptomycin at 37 °C (Thermo Fisher Scientific, Waltham, MA, USA) in 5% CO2. Cells were maintained at 37 °C in a humidified MCO-18AC incubator (Sanyo, Tokyo, Japan) supplied with 5% CO2. Cell cultures were tested for the absence of mycoplasma and validated by STR.
(§3) The cytotoxicity of the substances was tested using the 3-(4,5-dimethylthiazol-2-yl)2,5-diphenyl tetrazolium bromide (MTT) assay with some modifications. A total of 2500 cells per well for the MCF7′, HEK293T, A549 cell lines or 4000 cells per well for the VA-13 cell line were plated out in 135 μL of DMEM-F12 media (Gibco, Thermo Fisher Scientific, Waltham, MA, USA) in a 96-well plate and incubated in the 5% CO2 incubator for the first 20 h without treatment. Then, 15.8 μL of media–DMSO solutions of tested substances (final DMSO concentrations in the media were 0.5% or less) was added to the cells (triplicate each) and cells were treated for 64 h with 0.023 mg/L–50 mg/L (eight dilutions) of compounds 2f,n,o,r; 1.14 μg/L–2.5 mg/L (eight dilutions) of compounds 2a,b,d,g,h,k,l,p,q; 57.2 ng/L–125 μg/L (eight dilutions) of compounds 2e,i,j; 22.9 ng/L–50 μg/L (eight dilutions) of compounds 1,2c,m. Doxorubicin was used as a control substance. Then, the MTT reagent (Paneco LLC, Moscow, Russia) was added to cells up to a final concentration of 0.5 g/L (10 × stock solution in PBS was used) and incubated for 2 h at 37 °C in the incubator, under an atmosphere of 5% CO2. Then, the MTT solution was discarded, and 140 μL of DMSO (PharmaMed LLC, Moscow, Russia) was added. The plates were swayed on a shaker (120 rpm) to dissolve the formazan. The absorbance was measured using a microplate reader (VICTOR X5 Light Plate Reader, PerkinElmer, Waltham, MA, USA) at a wavelength of 555 nm (in order to measure formazan concentration). The results were used to construct dose–response graphs and to estimate IC50 values (IC50 is the concentration resulting in half of the maximal cytotoxic effect) with GraphPad Prism V, GraphPadSoftware, Inc., San Diego, CA, USA.

[2] = system: human breast cancer cell line MCF7′; assay: MTT cytotoxicity assay, MCF7′; details: MCF7, 64 h treatment, MTT, read-out: IC50, nM MCF7′
Excerpt: as §1, §2, §3

[3] = system: immortalized lung fibroblast cell line VA13 (WI38 subline 2RA); assay: MTT cytotoxicity assay, VA13; details: Homo sapiens, VA-13; 64 h treatment, MTT; read-out: IC50, nM VA13
Excerpt: as §1, §2, §3

With `COc1ccc(N(C)c2nc(C)nc3c2CCCC3)cc1` [Compound 2c, N-(4-methoxyphenyl)-N,2-dimethyl-5,6,7,8-tetrahydroquinazolin-4-amine] the IC50 (A549 cell line) was 0.6 ± 0.06 µM, the IC50 [1] was 2.9 ± 0.5 nM and the IC50 [2] was 3.6 ± 0.4 nM. It also gave an IC50 [3] of 1.6 ± 0.4 nM.
